Laboratory results published in patent publication US9802942B2, “Substituted 4-methyl-pyrrolo[1,2-A]pyrimidine-8-carboxamide compounds and uses thereof for modulating glucocerebrosidase activity” (Northwestern University, priority 2015, dated 2017).

Target: T1, glucocerebrosidase (GCase), recombinant wt. enzyme velaglucerase alfa (Homo sapiens, UniProt P04062)
T1 construct: purchased Shire Human Genetic Therapies, Inc. Vpriv
T1 sequence (P04062 40-536): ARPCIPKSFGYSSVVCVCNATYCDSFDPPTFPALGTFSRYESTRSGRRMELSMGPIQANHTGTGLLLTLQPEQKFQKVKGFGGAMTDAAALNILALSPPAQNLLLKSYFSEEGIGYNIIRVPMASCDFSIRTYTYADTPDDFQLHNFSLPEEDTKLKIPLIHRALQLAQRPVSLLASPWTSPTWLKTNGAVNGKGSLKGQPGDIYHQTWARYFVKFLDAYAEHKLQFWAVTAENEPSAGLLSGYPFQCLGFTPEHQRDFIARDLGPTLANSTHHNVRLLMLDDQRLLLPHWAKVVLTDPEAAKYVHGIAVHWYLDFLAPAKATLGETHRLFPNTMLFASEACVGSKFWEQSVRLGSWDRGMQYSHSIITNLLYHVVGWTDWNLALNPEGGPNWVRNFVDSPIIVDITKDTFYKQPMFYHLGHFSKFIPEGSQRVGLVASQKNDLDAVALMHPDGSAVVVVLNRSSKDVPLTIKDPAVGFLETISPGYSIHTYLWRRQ
Assay: Glucocerebrosidase activity assay with blue substrate (4MU-Glc)
Type: biochemical
Conditions: Table 1
Protocol: The compounds in DMSO solution 0.5 μL/well were transferred to a black 96-well plate (the final titration was 24 nM to 50 μM, 12 concentrations, 2 times dilution). 33.5 μL enzyme solution (7.5 nM final concentration) was transferred to the wells. After 5 min of incubation at room temperature, the enzyme reaction was initiated by the addition of 33 μL/well blue substrate or 66.5 μL/well red substrate. Final concentrations of the blue substrate (4MU-Glc) and red substrate (Res-Glc) were 1.5 mM and 30 μM, respectively. The red substrate reaction was measured in the Biotek Synergy H1 multi-mode plate reader with Ex=573 nm and Em=610 nm at 37° C. every 20 sec for 30 min. The blue substrate reaction was terminated by the addition of 33 μL/well stop solution (1 M NaOH and 1 M glycine mixture, pH 10) after 30 min of incubation at 37° C. The fluorescence was then measured in the plate reader at Ex=365 nm and Em=440 nm.
The recombinant wt. enzyme velaglucerase alfa (Vpriv®, Shire Human Genetic Therapies, Inc.) was obtained from residual solution after clinical infusions. The GCase activity assay buffer was composed of 50 mM citric acid, 176 mM K2HPO4, and 0.01% Tween-20 at pH 5.9. A solution of 1 M sodium hydroxide and 1 M glycine was used as the stop solution for the 4MU-β-glc substrate assay.
The compounds in DMSO solution 0.5 μL/well was transferred to a black 96-well plate (the final titration was 24 nM to 50 μM, 12 concentrations). 33.5 μL enzyme solution (7.5 nM final concentration) was transferred to the wells. After 5 min of incubation at room temperature, the enzyme reaction was initiated by the addition of 33 μL/well 4MU-Glc substrate or 66.5 μL/well red substrate. Final concentrations of the 4MU-Glc substrate and Res-Glc substrate were 1.5 mM and 30 μM, respectively. The red substrate reaction was measured in the Biotek Synergy H1 multi-mode plate reader with Ex=573 nm and Em=610 nm at 37° C. in every 20 seconds for 30 min. The 4MU-Glc substrate reaction was terminated by the addition of 33 μL/well stop solution (1 M NaOH and 1 M glycine mixture, pH 10) after 30 min of incubation at 37° C. The fluorescence was then measured in the plate reader with Ex=365 nm and Em=440 nm.

| SMILES | Activator / Inhibitor (word in Ac50 cell) |
| --- | --- |
| COc1ccc2nc(NC(=O)c3ccn4c(C)cc(C)nc34)sc2c1 [compound 47] | Inhibitor |
| Cc1cc(C)n2ccc(C(=O)Nc3ccc(-c4cn(CCCCC(=O)O)nn4)cc3)c2n1 [compound 57] | Activator |
| Cc1cc(C)n2ccc(C(=O)Nc3ccc(-c4cn(CCCCCCC(=O)O)nn4)cc3)c2n1 [compound 58] | Activator |
| Cc1cc(C)n2ccc(C(=O)Nc3ccc(-c4cn(CCCCCCCCC(=O)O)nn4)cc3)c2n1 [compound 59] | Activator |
| Cc1cc(C)n2ccc(C(=O)Nc3ccc(-c4cn(CCCCC(=O)ON5C(=O)CCC5=O)nn4)cc3)c2n1 [compound 60] | Activator |
| Cc1cc(C)n2ccc(C(=O)Nc3ccc(-c4cn(CCCCCCCCC(=O)ON5C(=O)CCC5=O)nn4)cc3)c2n1 [compound 62] | Activator |

Same assay, conditions: Table 1; titration 24 nM to 50 μM; substrate not given; read-out: Ac50

| SMILES | AC50 |
| --- | --- |
| C#Cc1ccc(NC(=O)c2ccn3c(C)cc(C)nc23)cc1 [compound 1] | 0.14 µM |
| Cc1cc(C)n2ccc(C(=O)Nc3ccc(C(F)(F)F)cc3)c2n1 [compound 5] | 0.8 µM |
| Cc1cc(C)n2ccc(C(=O)Nc3ccc(CN4CCOCC4)cc3)c2n1 [compound 7] | 112 µM |
| Cc1cc(C)n2ccc(C(=O)Nc3ccc(CN4CCN(C)CC4)cc3)c2n1 [compound 8] | 39.8 µM |
| Cc1cc(C)n2ccc(C(=O)Nc3ccc(CN4CCCCC4)cc3)c2n1 [compound 9] | 70.8 µM |
| Cc1cc(C)n2ccc(C(=O)Nc3ccc(N4CCN(C)CC4)cc3)c2n1 [compound 10] | 7.08 µM |
| CCN1CCN(c2ccc(NC(=O)c3ccn4c(C)cc(C)nc34)cc2)CC1 [compound 11] | 31.6 µM |
| Cc1cc(C)n2ccc(C(=O)Nc3ccc(N4CCN(Cc5ccccc5)CC4)cc3)c2n1 [compound 12] | 5.01 µM |
| Cc1cc(C)n2ccc(C(=O)Nc3ccc(Cc4ccccc4)cc3)c2n1 [compound 13] | 0.79 µM |
| Cc1cc(C)n2ccc(C(=O)Nc3ccc(CCN4CCOCC4)cc3)c2n1 [compound 14] | 31.6 µM |
| Cc1cc(C)n2ccc(C(=O)Nc3ccc(CCN4CCCCC4)cc3)c2n1 [compound 15] | 39.8 µM |
| Cc1cc(C)n2ccc(C(=O)Nc3ccc(CCN4CCN(C)CC4)cc3)c2n1 [compound 16] | 44.7 µM |
| Cc1cc(C)n2ccc(C(=O)Nc3ccc(N(C)C)cc3)c2n1 [compound 17] | 3.55 µM |
| Cc1cc(C)n2ccc(C(=O)Nc3ccc(N4CCCCC4)cc3)c2n1 [compound 18] | 1.58 µM |
| Cc1cc(C)n2ccc(C(=O)Nc3ccc(N4CCOCC4)cc3)c2n1 [compound 19] | 1.41 µM |
| Cc1cc(C)n2ccc(C(=O)Nc3ccc(CN(C)C)cc3)c2n1 [compound 20] | 14.1 µM |
| Cc1cc(C)n2ccc(C(=O)Nc3nccc4ccccc34)c2n1 [compound 21] | 39.8 µM |
| Cc1cc(C)n2ccc(C(=O)Nc3ccncc3)c2n1 [compound 22] | 25.1 µM |
| Cc1cc(C)n2ccc(C(=O)Nc3ccccn3)c2n1 [compound 23] | 22.4 µM |
| Cc1cc(C)n2ccc(C(=O)Nc3ccc(-c4ccccc4)cc3)c2n1 [compound 24] | 1.41 µM |
| Cc1cc(C)n2ccc(C(=O)Nc3ccc(N4CCCC4)cc3)c2n1 [compound 25] | 0.51 µM |

| SMILES | AC50 |
| --- | --- |
| Cc1cc(C)n2ccc(C(=O)Nc3nc4ccccc4[nH]3)c2n1 [compound 26] | 1.26 µM |
| Cc1cc(C)n2ccc(C(=O)NC3CCCCC3)c2n1 [compound 27] | 15.8 µM |
| Cc1cc(C)n2ccc(C(=O)NC3CCc4ccccc43)c2n1 (stereo not shown) [compound 28] | 3.98 µM |
| Cc1cc(C)n2ccc(C(=O)NC3Cc4ccccc4C3)c2n1 [compound 29] | 2.51 µM |
| Cc1cc(C)n2ccc(C(=O)Nc3ccc(CCO)cc3)c2n1 [compound 30] | 2.82 µM |
| Cc1cc(C)n2ccc(C(=O)Nc3nc4ccccc4s3)c2n1 [compound 31] | 0.4 µM |
| Cc1cc(C)n2ccc(C(=O)NC3CCN(Cc4ccccc4)CC3)c2n1 [compound 32] | 50 µM |
| Cc1cc(C)n2ccc(C(=O)NC3CCN(C(C)C)CC3)c2n1 [compound 34] | 30 µM |
| Cc1cc(C)n2ccc(C(=O)NC3CCN(c4ccccc4)CC3)c2n1 [compound 35] | 22.4 µM |
| Cc1cc(C)n2ccc(C(=O)Nc3ccc(-n4ccnc4)cc3)c2n1 [compound 36] | 107 µM |
| Cc1cc(C)n2ccc(C(=O)NC3CCC(N(C)C)CC3)c2n1 (stereo not shown) [compound 37] | 40 µM |
| Cc1cc(C)n2ccc(C(=O)Nc3ccc(C#Cc4ccccc4)cc3)c2n1 [compound 38] | 0.79 µM |
| Cc1cc(C)n2ccc(C(=O)Nc3nc4c(s3)CN(C)CC4)c2n1 [compound 39] | 39.8 µM |
| Cc1cc(C)n2ccc(C(=O)Nc3nc4cc(Cl)ccc4s3)c2n1 [compound 41] | 39.9 µM |
| Cc1cc(C)n2ccc(C(=O)Nc3nc4cc(F)ccc4s3)c2n1 [compound 42] | 50.2 µM |
| Cc1cc(C)n2ccc(C(=O)Nc3nc4c(C)cccc4s3)c2n1 [compound 43] | 0.2 µM |
| CCc1nnc(NC(=O)c2ccn3c(C)cc(C)nc23)s1 [compound 44] | 22.4 µM |
| Cc1cc(C)n2ccc(C(=O)Nc3ncc4ccccc4n3)c2n1 [compound 45] | 35.5 µM |
| Cc1cc(C)n2ccc(C(=O)Nc3cnn4c(C)cc(C)nc34)c2n1 [compound 46] | 0.45 µM |
| Cc1ccc2nc(NC(=O)c3ccn4c(C)cc(C)nc34)sc2c1 [compound 48] | 0.2 µM |
| CCCn1cnc(NC(=O)c2ccn3c(C)cc(C)nc23)n1 [compound 49] | 39.8 µM |

| SMILES | AC50 |
| --- | --- |
| Cc1cc(C)n2ccc(C(=O)Nc3ccc(N4CCC(N(C)C)CC4)cc3)c2n1 [compound 50] | 10 µM |
| Cc1cc(C)n2ccc(C(=O)NCc3cccs3)c2n1 [compound 51] | 15.8 µM |
| Cc1cc(C)n2ccc(C(=O)Nc3ccc(N=[N+]=[N-])cc3)c2n1 [compound 52] | 0.2 µM |
| Cc1cc(C)n2ccc(C(=O)Nc3ccc(C(=O)c4ccccc4)cc3)c2n1 [compound 53] | 0.14 µM |
| Cc1cc(C)n2ccc(C(=O)Nc3ccc(Oc4ccccc4)cc3)c2n1 [compound 54] | 0.56 µM |
| Cc1cc(C)n2ccc(C(=O)Nc3ccc(OCCC(=O)O)cc3)c2n1 [compound 56] | 15.8 µM |
| Cc1cc(C)n2ccc(C(=O)Nc3ccc(-c4cn(CCCCC(=O)O)nn4)cc3)c2n1 [compound 57] | 7.08 µM |
| Cc1cc(C)n2ccc(C(=O)Nc3ccc(-c4cn(CCCCCCC(=O)O)nn4)cc3)c2n1 [compound 58] | 1.78 µM |
| Cc1cc(C)n2ccc(C(=O)Nc3ccc(-c4cn(CCCCCCCCC(=O)O)nn4)cc3)c2n1 [compound 59] | 1.78 µM |
| Cc1cc(C)n2ccc(C(=O)Nc3ccc(-c4cn(CCCCC(=O)ON5C(=O)CCC5=O)nn4)cc3)c2n1 [compound 60] | 0.63 µM |
| Cc1cc(C)n2ccc(C(=O)Nc3ccc(-c4cn(CCCCCCC(=O)ON5C(=O)CCC5=O)nn4)cc3)c2n1 [compound 61] | 0.4 µM |
| Cc1cc(C)n2ccc(C(=O)Nc3ccc(-c4cn(CCCCCCCCC(=O)ON5C(=O)CCC5=O)nn4)cc3)c2n1 [compound 62] | 0.45 µM |
| Cc1cc(C)n2ccc(C(=O)Nc3ccc(-c4cn(CCN(C)C)nn4)cc3)c2n1 [compound 63] | 39.8 µM |
| Cc1cc(C)n2ccc(C(=O)Nc3ccc(-c4cn(CCCN)nn4)cc3)c2n1 [compound 64] | 7.07 µM |
| Cc1cc(C)n2ccc(C(=O)Nc3ccc(-c4cn(CCOCCN)nn4)cc3)c2n1 [compound 65] | 7.08 µM |
| Cc1cc(C)n2ccc(C(=O)Nc3ccc(-c4cn(CCOCCOCCOCCN)nn4)cc3)c2n1 [compound 66] | 7.94 µM |
| Cc1cc(C)n2ccc(C(=O)Nc3ccc(-c4cn(CCOCCOCCC(=O)NCCN5CCOCC5)nn4)cc3)c2n1 [compound 67] | 8.91 µM |
| Cc1cc(C)n2ccc(C(=O)Nc3ccc(-c4cn(CCOCCOCCC(=O)NCCC5CCCN5C)nn4)cc3)c2n1 (stereo not shown) [compound 68] | 10 µM |
| Cc1cc(C)n2ccc(C(=O)Nc3ccc(-c4cn(CCOCCOCCC(=O)NC5CCCCC5)nn4)cc3)c2n1 [compound 69] | 2 µM |
